Reference: patent US4734418A, “Quinazoline compounds and antihypertensives” (priority 1984, dated 1988)
Read-outs that look alike come from different tables or passages of the source.

System: Spontaneously Hypertensive Rats
Test: Test 1: antihypertensive effects (systolic tail artery blood pressure) and heart rate in spontaneously hypertensive rats, oral
Assay type: in vivo, rat (male, SHR)
Conditions: SHR, oral 1 mg/Kg; for change in vivo at 1 mg/kg: Rattus norvegicus; for Change (%) in heart rate: maximum value
Experimental: The antihypertensive effects of the certain compounds of this invention were studied in the following manner.
Among male, spontaneously hypertensive rats (SHRs) of 20 weeks of age or older and 350-430 g heavy all of which had developed hypertension, those having systolic blood pressures of 180 mmHg or higher were used in groups, each of which was constituted of 3-4 of the rats. […] Besides, heart rates were also measured simultaneously. The compounds were each dissolved or suspended in a 0.5% methylcellulose solution and then administered orally.
*All administered orally at a dosage of 1 mg/Kg except for the compounds
**Each percent change in heart rate is indicated by the corresponding

[1] = 3 hours, read-out: Antihypertensive effects, change (%) in blood pressure, 3 hours later
[2] = 6 hours, read-out: Antihypertensive effects, change (%) in blood pressure, 6 hours later
[3] = 24 hours, read-out: Antihypertensive effects, change (%) in blood pressure, 24 hours later
[4] = 1 hour, read-out: Antihypertensive effects, change (%) in blood pressure, 1 hour later

Structure (SMILES) | change in vivo at 1 mg/kg [1] [%] | change in vivo at 1 mg/kg [2] [%] | change in vivo at 1 mg/kg [3] [%] | Change (%) in heart rate | change in vivo at 1 mg/kg [4] [%]
COCCN1Cc2nc(N3CCN(c4nc(N)c5cc(OC)c(OC)cc5n4)CC3)ncc2C1=O [Example 87] | -15.2 | -21.6 | -2.5 | +17.7% | 
COc1cc2nc(N3CCN(c4ncc5c(n4)CN(CCO)C5=O)CC3)nc(N)c2cc1OC [Example 88] | -4.4 | -6.9 | -2 | +5.8% | 0.5
CCOC(=O)c1cnc(N2CCN(c3nc(N)c4cc(OC)c(OC)cc4n3)CC2)nc1N [Example 54] | -11.4 | -16.7 | -4.8 | +5.2% | -4.3
COc1cc2nc(N3CCN(C4=NCc5c(ccn(C)c5=O)N4)CC3)nc(N)c2cc1OC [Example 34] | -9.1 | -13.9 | -7.2 | +2.3% | 0.5
COc1cc2nc(N3CCN(c4ncc5c(=O)n(C)[nH]c5n4)CC3)nc(N)c2cc1OC.Cl [Example 83, 4-Amino-6,7-dimethoxy-2-(4-(2-methyl-3-oxo-2,3-dihydro-1H-pyrazolo[3,4-d]pyrimidine-6-yl)piperazino)quinazoline hydrochloride] | -4.4 | -5.3 | -0.5 | +5.6% | -3.9
CCN(CC)C(=O)c1ccc(N2CCN(c3nc(N)c4cc(OC)c(OC)cc4n3)CC2)nc1 [Example 93] | -9 | -10.5 | -5 | +8.0% | -4.5
CCOC(=O)c1cnc(N2CCN(c3nc(N)c4cc(OC)c(OC)cc4n3)CC2)nc1N(CC)CC [Example 58] | -17.6 | -22.5 | -9.8 | +9.8% | -7.4
COc1cc2nc(N3CCN(c4ncc(C(=O)NN(C)C)c(C)n4)CC3)nc(N)c2cc1OC [Example 47] | -9 | -12.5 | -2.5 | +6.3% | -3.5
COc1cc2nc(N3CCN(c4ncc(C(=O)NC5CCCCC5)c(C)n4)CC3)nc(N)c2cc1OC [Example 45] | -2.5 | -8 | -5.5 | +4.2% | -1.5
COc1cc2nc(N3CCN(c4ncc5c(=O)n(C(C)C)ccc5n4)CC3)nc(N)c2cc1OC [Example 6] | -13.8 | -16.7 | -9.9 | +5.1% | -1.5
CCn1ccc(=O)c2cnc(N3CCN(c4nc(N)c5cc(OC)c(OC)cc5n4)CC3)nc21 [Example 20] | -12.5 | -12 | -2 | +5.7% | 1.5
COc1cc2nc(N3CCN(c4nc(SC)c5c6c(sc5n4)CCCC6C)CC3)nc(N)c2cc1OC (stereo not drawn) [Example 75] | 0.5 | -7.8 | -3.9 | +8.2% | 12.2
COc1cc2nc(N3CCN(c4nc(N)c5cc(OC)c(OC)cc5n4)CC3)nc(N)c2cc1OC [Example 72] | -2 | -2.5 | -2.9 | +8.6% | 2.9
CCN(CC)C(=O)c1cnc(N2CCN(c3nc(N)c4cc(OC)c(OC)cc4n3)CC2)nc1NC(C)C [Example 78] | -33.7 | -50.2 | -18.5 | +23.7% | -23.4
